Experiments:
[1] = test system: all members of the CK1 family and an additional ten non‐CK1 proteins; experiment: AMI‐329 bead binding with AMI‐331 competitor, the 23 AMI‐331‐bound proteins; parameters: species or system Arabidopsis thaliana
Procedure: (§1) Screening for proteins bound to AMI‐329 beads was done by a method similar to what has previously been described (Uehara et al., 2019). Briefly, two‐week‐old seedlings grown under LD conditions were harvested at time points ZT2, ZT6, ZT9, and ZT17, and stored at −80°C. Proteins from the frozen plant samples were incubated with 0, 5, or 50 µM of AMI‐331 at 4°C for 30 min with rotary mixing. Two technical replicates were used for each experiment. PBS‐washed AMI‐329 beads were added to the protein samples and gently rotated at 4°C for 1 hr. AMI‐329 bead resins were washed with bead buffer (Uehara et al., 2019) six times. The washed resins were suspended in SDS sample buffer and boiled for 8 min. Protein samples were in‐gel‐digested as previously described (Uehara et al., 2019). Peptides were analyzed with a Q Exactive hybrid quadrupole‐orbitrap mass spectrometer (Thermo Fisher Scientific), as described previously (Uehara et al., 2019). […]
(§2) However, another possible mechanism for the strong AMI‐331 biological activity in vivo is that it targets proteins other than the CK1 family for period lengthening. […] It is noteworthy that kinase AT4G08800 is very similar to the CKL family, but the ATP‐binding pocket of mammalian CK1 as determined by its crystal structure (Shinohara et al., 2017) was absent from AT4G08800, as shown in an Araport 11 model (https://www.araport.org). […]

PRR7 = experiment: RT-qPCR of the CK1 downstream gene PRR7; format: in vivo, Arabidopsis; conditions: 6 hr
Procedure: Arabidopsis Col‐0 seedlings that had been grown under constant light conditions for […] were immersed in 10 or 50 µM of the GSK‐3, SHAGGY‐related, and BIN2 kinase inhibitor Bikinin (SML0094, Sigma) (De Rybel et al., 2009), […], or DMSO as control for 6 hr. Three biological replicates were used for each assay. Harvested seedlings were frozen in liquid nitrogen and crushed with zirconia beads in a Tissue Lyser II, and RNA was isolated with Illustra RNAspin (25‐0500‐72, GE Healthcare). RT‐qPCR was performed as described previously (Nakamichi et al., 2010) using an Eco Real‐Time PCR System (Illumina). Gene expression was normalized against IPP2, and maximal values were set to 1. Primers for detecting IPP2, PRR7, GR60ox2, and CPD were described previously (De Rybel et al., 2009; Kamioka et al., 2016).
Because the ATSK family was identified by the molecular probe assay as potential targets of AMI‐331, even though the affinities between AMI‐331 and ATSKs were not as high as between AMI‐331 and CK1, we used the ATSK inhibitor Bikinin to determine if AMI‐331 treatment affects the expression of genes downstream of ATSKs (De Rybel et al., 2009). Four‐day‐old Arabidopsis seedlings grown under constant light conditions were treated with Bikinin or AMI‐331 for 6 hr, and mRNA extracted from seedlings samples was analyzed by RT‐qPCR.

Kinase AT4G08800 = experiment: AMI‐329 bead binding with AMI‐331 competitor, kinase AT4G08800; parameters: species or system Arabidopsis thaliana
Procedure: as §1, §2

CKL5 (AT2G19470) = molecular target: T1, CKL5 (AT2G19470) (Arabidopsis thaliana, UniProt Q9ZUP4); experiment: AMI‐329 bead binding with AMI‐331 competitor, CKL5
T1 construct: from tissue; host or cells: Arabidopsis seedlings, two weeks old
Procedure: as §1, §2

CKL10 (AT3G23340) = molecular target: T2, CKL10 (AT3G23340) (Arabidopsis thaliana, UniProt Q9LW62); experiment: AMI‐329 bead binding with AMI‐331 competitor, CKL10
T2 construct: from tissue; host or cells: Arabidopsis seedlings, two weeks old
Procedure: as §1, §2

HYD1 (AT1G20050) = molecular target: T3, HYD1 (AT1G20050) (Arabidopsis thaliana, UniProt O48962); experiment: AMI‐329 bead binding with AMI‐331 competitor, HYD1
T3 construct: from tissue; host or cells: Arabidopsis seedlings, two weeks old
Procedure: as §1, §2

Unknown AT5G42765 = experiment: AMI‐329 bead binding with AMI‐331 competitor, unknown protein AT5G42765; parameters: species or system Arabidopsis thaliana
Procedure: as §1, §2

Kinase AT4G34500 = molecular target: T4, Kinase AT4G34500 (Arabidopsis thaliana, UniProt Q6NKZ9); experiment: AMI‐329 bead binding with AMI‐331 competitor, kinase AT4G34500
T4 construct: from tissue; host or cells: Arabidopsis seedlings, two weeks old
Procedure: as §1, §2

T1 sequence (Q9ZUP4 whole entry): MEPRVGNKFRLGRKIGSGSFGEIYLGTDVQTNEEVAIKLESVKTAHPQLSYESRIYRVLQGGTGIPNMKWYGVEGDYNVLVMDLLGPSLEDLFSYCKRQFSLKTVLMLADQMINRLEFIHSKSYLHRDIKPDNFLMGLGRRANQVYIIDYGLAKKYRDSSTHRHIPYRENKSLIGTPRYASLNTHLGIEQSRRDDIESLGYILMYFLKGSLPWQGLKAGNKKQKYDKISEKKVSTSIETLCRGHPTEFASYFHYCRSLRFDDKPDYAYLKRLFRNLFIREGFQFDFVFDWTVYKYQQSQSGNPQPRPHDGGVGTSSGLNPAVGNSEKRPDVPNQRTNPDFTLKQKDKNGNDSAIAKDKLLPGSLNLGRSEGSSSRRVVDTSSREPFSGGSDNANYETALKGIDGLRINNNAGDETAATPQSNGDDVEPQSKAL
T2 sequence (Q9LW62 whole entry): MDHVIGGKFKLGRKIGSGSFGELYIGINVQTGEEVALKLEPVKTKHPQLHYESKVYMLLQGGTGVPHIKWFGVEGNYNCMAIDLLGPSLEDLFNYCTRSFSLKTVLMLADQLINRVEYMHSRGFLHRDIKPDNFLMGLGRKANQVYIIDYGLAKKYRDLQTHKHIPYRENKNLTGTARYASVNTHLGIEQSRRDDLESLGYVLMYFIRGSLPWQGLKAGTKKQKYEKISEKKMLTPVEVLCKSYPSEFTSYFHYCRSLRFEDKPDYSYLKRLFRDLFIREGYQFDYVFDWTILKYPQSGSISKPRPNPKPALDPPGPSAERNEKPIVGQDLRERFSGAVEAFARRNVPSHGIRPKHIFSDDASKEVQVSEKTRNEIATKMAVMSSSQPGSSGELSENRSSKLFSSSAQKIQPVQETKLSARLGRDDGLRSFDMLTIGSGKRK
T4 sequence (Q6NKZ9 whole entry): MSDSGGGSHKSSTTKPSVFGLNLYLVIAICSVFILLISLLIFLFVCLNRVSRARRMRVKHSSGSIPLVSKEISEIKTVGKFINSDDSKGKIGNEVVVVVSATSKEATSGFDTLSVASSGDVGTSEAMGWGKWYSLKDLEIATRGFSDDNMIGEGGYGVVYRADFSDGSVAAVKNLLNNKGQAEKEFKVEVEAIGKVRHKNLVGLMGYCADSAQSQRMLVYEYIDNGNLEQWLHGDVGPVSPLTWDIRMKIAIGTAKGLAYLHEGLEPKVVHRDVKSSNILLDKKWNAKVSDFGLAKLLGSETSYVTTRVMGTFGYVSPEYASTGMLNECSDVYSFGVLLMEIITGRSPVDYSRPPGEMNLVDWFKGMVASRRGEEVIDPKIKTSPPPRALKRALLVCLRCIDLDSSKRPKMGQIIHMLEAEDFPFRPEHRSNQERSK
T3 sequence (O48962 whole entry): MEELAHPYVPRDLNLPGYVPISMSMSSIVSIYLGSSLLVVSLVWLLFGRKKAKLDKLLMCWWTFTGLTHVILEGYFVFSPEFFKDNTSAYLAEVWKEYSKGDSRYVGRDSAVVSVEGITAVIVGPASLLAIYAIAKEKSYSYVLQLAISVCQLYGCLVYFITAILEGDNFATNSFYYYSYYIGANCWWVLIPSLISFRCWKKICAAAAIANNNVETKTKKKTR

## C#CCn1c2c(c(Br)c1-c1ccncc1)C(=O)NCC2.Cl [AMI‐331]
[1]; 5 µM AMI‐331 as competitor
  Spectra on AMI‐329 beads compared to the control sample without competitor: 0% to 7%
[1]; 50 µM AMI‐331 as competitor
  Spectra on AMI‐329 beads: absent
PRR7; 1 µM
  PRR7 transcript abundance: significantly decreased
PRR7; 5 and 25 µM
  PRR7 transcript abundance: decreased
Kinase AT4G08800; competitor AMI‐331 5 µM
  Spectra (PSMs) AMI‐329 beads bound: 0 PSMs
Kinase AT4G08800; competitor AMI‐331 50 µM
  Spectra (PSMs) AMI‐329 beads bound: 0 PSMs
CKL5 (AT2G19470); competitor AMI‐331 5 µM
  Spectra (PSMs) AMI‐329 beads bound: 1 PSMs
CKL5 (AT2G19470); competitor AMI‐331 50 µM
  Spectra (PSMs) AMI‐329 beads bound: 0 PSMs
CKL10 (AT3G23340); competitor AMI‐331 5 µM
  Spectra (PSMs) AMI‐329 beads bound: 1 PSMs
CKL10 (AT3G23340); competitor AMI‐331 50 µM
  Spectra (PSMs) AMI‐329 beads bound: 0 PSMs
HYD1 (AT1G20050); competitor AMI‐331 5 µM
  Spectra (PSMs) AMI‐329 beads bound: 0 PSMs
HYD1 (AT1G20050); competitor AMI‐331 50 µM
  Spectra (PSMs) AMI‐329 beads bound: 0 PSMs
Unknown AT5G42765; competitor AMI‐331 5 µM
  Spectra (PSMs) AMI‐329 beads bound: 0 PSMs
Unknown AT5G42765; competitor AMI‐331 50 µM
  Spectra (PSMs) AMI‐329 beads bound: 0 PSMs
Kinase AT4G34500; competitor AMI‐331 5 µM
  Spectra (PSMs) AMI‐329 beads bound: 0 PSMs
Kinase AT4G34500; competitor AMI‐331 50 µM
  Spectra (PSMs) AMI‐329 beads bound: 0 PSMs
